In US9512139B2, “Conformationally constrained, fully synthetic macrocyclic compounds” (POLYPHOR AG, priority 2009, dated 2016):

Assays:
[1] = Metabolic stability assay, human microsomes; type: in vitro ADME; settings: human, microsomes
[2] = target: T1, Prostaglandin F (FP) Receptor (Homo sapiens, UniProt P43088); experiment: Ca2+ assay (FLIPR) for the GPCR prostaglandin F (FP) receptor, agonist and antagonist mode; type: cell-based
T1 construct: host or cells: Ca2+ optimized hematopoietic cell lines (rat)
Procedure: Biological and Pharmacological Methods 1. Ca^2+ Assays for the GPCRs Motilin Receptor, Prostaglandin F (FP) Receptor, 5-hydroxytryptamine 2B (5-HT2B) Receptor, and Purinoreceptor P2Y1
Assays were performed using on a FLIPR^TETRA fluorometric imaging plate reader (Molecular Devices) with ScreenWorks Version 2 (Molecular Devices) as device operating and data analysis software.
Dose dependent agonist and antagonist activities were determined. Percentage activation and percentage inhibition values were determined.
Percentage activation was determined upon initial addition of the sample compounds followed by 10 minutes incubation at 25° C. Following compound incubation, reference agonists were added at EC80 to determine percentage inhibition.
Reference agonists were purchased from reputable commercial vendors and prepared according to each ligand's specifications. All handling of ligands were done to ensure proper control throughout the experiments.
Example compounds were weighed on a Microbalance (Mettler MX5) and dissolved in 100% DMSO to a final concentration of 2.5 mM and subsequently diluted into the assay buffer.
The Assay buffer was a supplemented HBSS (Hank's Balanced Salt Solution). HBSS was supplemented with 20 mM HEPES (4-(2-hydroxyethyl)-piperazin-1-ethansulfonic acid) and 2.5 mM Probenecid (Sigma P8761).
GPCR assays were performed using Ca^2+ optimized hematopoietic cell lines (rat) with cultures never exceeding 90% confluency. Cells were harvested and seeded (from cultures at less than 90% confluency) at 50000 cells/well for a 96-well plate (12500 cells/well for 384). After seeding, the assay plates were incubated for forty-five (45) minutes at room temperature. After room temperature incubation, the assay plates were incubated at 37° C. 5% CO2 for 24 hours prior to assaying.
All GPCR assays were performed using Fluo-8 Ca^2+ dye. Ca^2+ dye was prepared at 1× dye concentration in GPCR assay buffer. After 24 hours of incubation, cells were washed with GPCR assay buffer, and then Ca^2+-dye (100 μL/well) was added.
The plates were incubated for 90 minutes at 30° C. 5% CO2 prior to FLIPR assay.
Compound plates were prepared to add 50 μL/well during the agonist assay mode. During the FLIPR assay, 50 μL/well from the compound plate was diluted 3-fold into the existing 100 μL/well from the dye loading step. Therefore all compounds were prepared as 3× the final concentration desired in the assay.
After completion of the first single addition assay run, assay plate was removed from the FLIPR Tetra and placed at 25° C. for seven (7) minutes before antagonist assay.
Using the EC80 values determined during the agonist assay, all pre-incubated sample compound and reference antagonist (if applicable) wells were stimulated at the EC80 of the reference agonist. As reference ligands for the first three assays their obvious natural ligands motilin, prostaglandin F2α, and serotonin (5-HT, 5-Hydroxytryptamine) were used; and for the P2Y1 assay 2MeSATP (2-methyl-thio-adeno-sine 5′-triphosphate, i.e. (2R,3S,4R)-5-(6-amino-2-methylsulfanyl-purin-9-yl)-3,4-dihydroxy-tetrahydrofuran-2-yl]methyl (hydroxy-phosphonooxy-phosphoryl)hydrogen phosphate) was applied.
After the addition of the reference agonist fluorescence was monitored for 180 sec using FLIPR Tetra.
Data Analysis and Results:
From the FLIPR data, with negative control correction enabled, the maximum statistic for each well was exported and percentage activation relative to Emax control was calculated.

[3] = Metabolic stability assay, CD-1 mouse microsomes; type: in vitro ADME; settings: CD-1, mouse, microsomes

T1 sequence (P43088 whole entry): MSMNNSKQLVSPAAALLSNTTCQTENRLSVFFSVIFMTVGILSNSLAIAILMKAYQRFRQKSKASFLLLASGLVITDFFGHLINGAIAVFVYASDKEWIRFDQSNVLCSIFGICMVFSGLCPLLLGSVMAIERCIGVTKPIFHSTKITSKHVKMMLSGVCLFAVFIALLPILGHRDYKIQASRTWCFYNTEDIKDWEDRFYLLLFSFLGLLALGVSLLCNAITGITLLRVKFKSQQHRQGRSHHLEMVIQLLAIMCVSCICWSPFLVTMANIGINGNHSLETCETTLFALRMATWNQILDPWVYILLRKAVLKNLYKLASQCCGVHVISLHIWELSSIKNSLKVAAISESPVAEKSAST

Row | SMILES | IC50 [2] [µM] | inhibition at 10 µM [2] [%] | other results
1 | CCCCCCCCCC(=O)N[C@H]1CN(C)C(=O)c2cccc(c2)OC[C@@H]2C[C@H](NC(=O)Cc3c[nH]c4ccccc34)CN2C(=O)CN(C)C1=O [Ex. 213, N-[(4S,6S,13S)-6-{[2-(1H-indol-3-yl)acetyl]amino}-11,15-dimethyl-9,12,16-trioxo-2-oxa-8,11,15-triazatricyclo[15.3.1.0^4,8]henicosa-1(21),17,19-trien-13-yl]decanamide] | 1.7 | 78 | half-life at 10 µM ([1]; both sexes): 16 min; Metabolic Stability 60 min hum [% remain.] ([1]; both, 1 h, 10 µM): 0 % remain.; half-life at 10 µM ([3]; both sexes): 17 min; Metabolic Stability 60 min mouse [% remain.] ([3]; both, 1 h, 10 µM): 4 % remain.
2 | CN1CCC[C@H](NC(=O)Cc2ccc(-c3ccccc3)cc2)C(=O)N2C[C@@H](NC(=O)Cc3ccc4ccccc4c3)C[C@H]2COc2cccc(c2)C1=O [Ex. 522, 2-[1,1′-biphenyl]-4-yl-N-[(4S,6S,10S)-14-methyl-6-{[2-(2-naphthyl)acetyl]amino}-9,15-dioxo-2-oxa-8,14-diazatricyclo[14.3.1.0^4,8]icosa-1(20),16,18-trien-10-yl]acetamide] | 0.35 | 95 | 
3 | CN1CCC[C@H](NC(=O)CCCCCc2ccccc2)C(=O)N2C[C@@H](NC(=O)Cc3ccc4ccccc4c3)C[C@H]2COc2cccc(c2)C1=O [Ex. 516, N-[(4S,6S,10S)-14-methyl-6-([2-(2-naphthyl)acetyl]amino}-9,15-dioxo-2-oxa-8,14-diazatricyclo[14.3.1.0^4,8]icosa-1(20),16,18-trien-10-yl]-6-phenylhexanamide] | 0.59 | 97 | 
4 | CN1CCC[C@H](NC(=O)Cc2ccc3ccccc3c2)C(=O)N2C[C@@H](NC(=O)Nc3ccc(N(C)C)cc3)C[C@H]2COc2cccc(c2)C1=O [Ex. 538, N-[(4S,6S,10S)-6-({[4-(dimethylamino)anilino]carbonyl}amino)-14-methyl-9,15-dioxo-2-oxa-8,14-diazatricyclo[14.3.1.0^4,8]icosa-1(20),16,18-trien-10-yl]-2-(2-naphthyl)acetamide] |  | 80 | 
5 | CN1CCC[C@H](NC(=O)CCCCOc2ccccc2)C(=O)N2C[C@@H](NC(=O)Cc3ccc4ccccc4c3)C[C@H]2COc2cccc(c2)C1=O [Ex. 517, N-[(4S,6S,10S)-14-methyl-6-{[2-(2-naphthyl)acetyl]amino}-9,15-dioxo-2-oxa-8,14-diazatricyclo[14.3.1.0^4,8]icosa-1(20),16,18-trien-10-yl]-5-phenoxypentanamide] | 0.65 | 98 | 
6 | CCCCCCCCCC(=O)N[C@H]1CCCN(C)C(=O)c2cccc(c2)OC[C@@H]2C[C@H](NC(=O)CCc3ccccc3)CN2C1=O [Ex. 509, N-[(4S,6S,10S)-14-methyl-9,15-dioxo-6-[(3-phenylpropanoyl)amino]-2-oxa-8,14-diazatricyclo[14.3.1.0^4,8]icosa-1(20),16,18-trien-10-yl]decanamide] | 2.1 | 54 | 
7 | CN1CCC[C@H](NC(=O)Nc2cccc(N(C)C)c2)C(=O)N2C[C@@H](NC(=O)Cc3ccc4ccccc4c3)C[C@H]2COc2cccc(c2)C1=O [Ex. 507, N-[(4S,6S,10S)-10-({[3-(dimethylamino)anilino]carbonyl}amino)-14-methyl-9,15-dioxo-2-oxa-8,14-diazatricyclo[14.3.1.0^4,8]icosa-1(20),16,18-trien-6-yl]-2-(2-naphthyl)acetamide] | 1.1 | 51 | 
8 | CN1CCC[C@H](NC(=O)Cc2ccc3ccccc3c2)C(=O)N2C[C@@H](NC(=O)Cc3ccc4ccccc4c3)C[C@H]2COc2cccc(c2)C1=O [Ex. 186, N-[(4S,6S,10S)-14-methyl-10-{[2-(2-naphthyl)acetyl]amino}-9,15-dioxo-2-oxa-8,14-diazatricyclo[14.3.1.0^4,8]icosa-1(20),16,18-trien-6-yl]-2-(2-naphthyl)acetamide] | 1.2 | 53 | 
9 | Cc1cccc(NC(=O)N[C@H]2CCCN(C)C(=O)c3cccc(c3)OC[C@@H]3C[C@H](NC(=O)Cc4ccc5ccccc5c4)CN3C2=O)c1 [Ex. 506, N-[(4S,6S,10S)-14-methyl-9,15-dioxo-10-[(3-toluidinocarbonyl)amino]-2-oxa-8,14-diazatricyclo[14.3.1.0^4,8]icosa-1(20),16,18-trien-6-yl]-2-(2-naphthyl)acetamide] | 2.2 | 55 | 
10 | CN1CCC[C@H](NC(=O)Cc2ccc3ccccc3c2)C(=O)N2C[C@@H](NC(=O)Cc3ccc4cccnc4c3)C[C@H]2COc2cccc(c2)C1=O [Ex. 540, N-[(4S,6S,10S)-14-methyl-9,15-dioxo-6-{[2-(7-quinolinyl)acetyl]amino}-2-oxa-8,14-diazatricyclo[14.3.1.0^4,8]icosa-1(20),16,18-trien-10-yl]-2-(2-naphthyl)acetamide] |  | 43 | 

Further lines, with some results ahead:

Row | IC50 [2] [µM] | inhibition at 10 µM [2] [%] | SMILES | other results
11 |  | 74 | CCCCCCCCCC(=O)N[C@H]1C[C@H]2COc3cccc(c3)C(=O)N(C)CCC[C@H](NC(=O)Cc3ccc4ccccc4c3)C(=O)N2C1 [Ex. 542, N-[(4S,6S,10S)-14-methyl-10-{[2-(2-naphthyl)acetyl]amino}-9,15-dioxo-2-oxa-8,14-diazatricyclo[14.3.1.0^4,8]icosa-1(20),16,18-trien-6-yl]decanamide] | 
12 |  | 69 | CCCCCCCCCC(=O)N[C@H]1CCCN(C)C(=O)c2cccc(c2)OC[C@@H]2C[C@H](NC(=O)C(c3ccccc3)c3ccccc3)CN2C1=O [Ex. 548, N-[(4S,6S,10S)-6-[(2,2-diphenylacetyl)amino]-14-methyl-9,15-dioxo-2-oxa-8,14-diazatricyclo[14.3.1.0^4,8]icosa-1(20),16,18-trien-10-yl]decanamide] | 
13 |  | 72 | CN1CCC[C@H](NC(=O)Cc2ccc(-c3ccccc3)cc2)C(=O)N2C[C@@H](NC(=O)Cc3ccc(-c4ccccc4)cc3)C[C@H]2COc2cccc(c2)C1=O [Ex. 551, 2-[1,1′-biphenyl]-4-yl-N-[(4S,6S,10S)-10-[(2-[1,1′-biphenyl]-4-ylacetyl)amino]-14-methyl-9,15-dioxo-2-oxa-8,14-diazatricyclo[14.3.1.0^4,8]icosa-1(20),16,18-trien-6-yl]acetamide] | 
14 |  | 81 | CCCCCC(=O)N[C@H]1C[C@H]2COc3cccc(c3)C(=O)N(C)CCC[C@H](NC(=O)Cc3cccc4ccccc34)C(=O)N2C1 [Ex. 544, N-[(4S,6S,10S)-14-methyl-10-{[2-(1-naphthyl)acetyl]amino}-9,15-dioxo-2-oxa-8,14-diazatricyclo[14.3.1.0^4,8]icosa-1(20),16,18-trien-6-yl]hexanamide] | 
15 |  | 65 | CN1CCC[C@H](NC(=O)Cc2ccc3ccccc3c2)C(=O)N2C[C@@H](NC(=O)Cc3cccc(Oc4ccccc4)c3)C[C@H]2COc2cccc(c2)C1=O [Ex. 541, N-[(4S,6S,10S)-14-methyl-9,15-dioxo-6-{[2-(3-phenoxyphenyl)acetyl]amino}-2-oxa-8,14-diazatricyclo[14.3.1.0^4,8]icosa-1(20),16,18-trien-10-yl]-2-(2-naphthyl)acetamide] | 
16 |  | 82 | CCCCCCCCCC(=O)N[C@H]1C[C@H]2COc3cccc(c3)C(=O)N(C)CCC[C@H](NC(=O)Cc3cccc4ccccc34)C(=O)N2C1 [Ex. 543, N-[(4S,6S,10S)-14-methyl-10-{[2-(1-naphthyl)acetyl]amino}-9,15-dioxo-2-oxa-8,14-diazatricyclo[14.3.1.0^4,8]icosa-1(20),16,18-trien-6-yl]decanamide] | 
17 |  | 62 | CN1CCC[C@H](NC(=O)Cc2cccc3ccccc23)C(=O)N2C[C@@H](NC(=O)C(c3ccccc3)c3ccccc3)C[C@H]2COc2cccc(c2)C1=O [Ex. 549, N-[(4S,6S,10S)-14-methyl-10-{[2-(1-naphthyl)acetyl]amino}-9,15-dioxo-2-oxa-8,14-diazatricyclo[14.3.1.0^4,8]icosa-1(20),16,18-trien-6-yl]-2,2-diphenylacetamide] | 
